Test results from US9540392B2, “Thienopyrimidines” (BAYER PHARMA AKTIENGESELLSCHAFT, priority 2012, dated 2017).

The compounds below were run against T1, human full-length MKNK1 (Homo sapiens, UniProt Q9BUB5, T385D) (assay: MKNK1 kinase high ATP assay (TR-FRET)). Details: not given.
T1 construct: GST (N); purchased Carna Biosciences 02-145; host or cells: insect cells (baculovirus expression system)
T1 sequence (Q9BUB5 1-424 isoform Q9BUB5-2 T344D): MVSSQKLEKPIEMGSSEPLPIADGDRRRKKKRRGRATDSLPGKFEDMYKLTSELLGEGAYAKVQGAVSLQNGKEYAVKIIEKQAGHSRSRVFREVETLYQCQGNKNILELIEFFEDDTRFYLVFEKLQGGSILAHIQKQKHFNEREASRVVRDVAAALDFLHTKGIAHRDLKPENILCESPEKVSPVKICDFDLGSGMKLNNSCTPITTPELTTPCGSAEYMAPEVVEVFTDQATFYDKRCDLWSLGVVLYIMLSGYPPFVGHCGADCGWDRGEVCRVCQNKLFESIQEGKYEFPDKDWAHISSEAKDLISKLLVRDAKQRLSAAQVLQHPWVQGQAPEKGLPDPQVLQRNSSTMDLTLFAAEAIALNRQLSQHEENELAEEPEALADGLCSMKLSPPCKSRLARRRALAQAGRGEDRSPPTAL
Format: biochemical
Experimental: MKNK1-inhibitory activity at high ATP of compounds of the present invention after their preincubation with MKNK1 was quantified employing the TR-FRET-based MKNK1 high ATP assay as described in the following paragraphs.
As substrate for the kinase reaction the biotinylated peptide biotin-Ahx-[…] (C-terminus in amide form) was used, which can be purchased e.g. from the company Biosyntan (Berlin-Buch, Germany).
For the assay 50 nL of a 100 fold concentrated solution of the test compound in DMSO was pipetted into a black low volume 384 well microtiter plate (Greiner Bio-One, Frickenhausen, Germany), 2 μL of a solution of MKNK1 in aqueous assay buffer [50 mM HEPES pH 7.5, 5 mM MgCl2, 1.0 mM dithiothreitol, 0.005% (v/v) Nonidet-P40 (Sigma)] was added and the mixture was incubated for 15 min at 22° C. to allow pre-binding of the test compounds to the enzyme before the start of the kinase reaction. Then the kinase reaction was started by the addition of 3 μL of a solution of adenosine-tri-phosphate (ATP, 3.3 mM=>final conc. in the 5 μL assay volume is 2 mM) and substrate (0.1 μM=>final conc. in the 5 μL assay volume is 0.06 μM) in assay buffer and the resulting mixture was incubated for a reaction time of 30 min at 22° C. The concentration of MKNK1 was adjusted depending of the activity of the enzyme lot and was chosen appropriate to have the assay in the linear range, typical concentrations were in the range of 0.003 μg/mL. The reaction was stopped by the addition of 5 μL of a solution of TR-FRET detection reagents (5 nM streptavidine-XL665 [Cisbio Bioassays, Codolet, France] and 1 nM anti-ribosomal protein S6 (pSer236)-antibody from Invitrogen [#44921G] and 1 nM LANCE EU-W1024 Labeled ProteinG [Perkin-Elmer, product no. AD0071]) in an aqueous EDTA-solution (100 mM EDTA, 0.1% (w/v) bovine serum albumin in 50 mM HEPES pH 7.5).
The resulting mixture was incubated for 1 h at 22° C. to allow the formation of complex between the phosphorylated biotinylated peptide and the detection reagents. Subsequently the amount of phosphorylated substrate was evaluated by measurement of the resonance energy transfer from the Eu-chelate to the streptavidine-XL. Therefore, the fluorescence emissions at 620 nm and 665 nm after excitation at 350 nm were measured in a TR-FRET reader, e.g. a Rubystar (BMG Labtechnologies, Offenburg, Germany) or a Viewlux (Perkin-Elmer). The ratio of the emissions at 665 nm and at 622 nm was taken as the measure for the amount of phosphorylated substrate.
Compound `COc1cc2[nH]ncc2cc1Nc1ncnc2sc3c(c12)CCC(C(=O)N1CCC(=O)CC1)C3` (racemic) [Example 174, (RS)-1-({4-[(6-Methoxy-1H-indazol-5-yl)amino]-5,6,7,8-tetrahydro[1]benzothieno[2,3-d]pyrimidin-7-yl}carbonyl)piperidin-4-one] has an IC50 of 0.6 nM.

Same assay, conditions: 2 mM ATP, after preincubation with MKNK1; read-out: MKNK1 IC50 (MKNK1 high ATP)
`CCOc1cc2[nH]ncc2cc1Nc1ncnc2sc3c(c12)CCC(C(=O)N(C)C)C3` (racemic) [Example 254, (RS)-4-[(6-Ethoxy-1H-indazol-5-yl)amino]-N,N-dimethyl-5,6,7,8-tetrahydro[1]benzothieno[2,3-d]pyrimidine-7-carboxamide] showed an IC50 of 1.6 nM. `O=C(Nc1ccccc1)C1CCc2c(sc3ncnc(Nc4ccc5[nH]ncc5c4)c23)C1` (stereo not shown) [Example 5, 4-(1H-Indazol-5-ylamino)-N-phenyl-5,6,7,8-tetrahydro[1]benzothieno[2,3-d]pyrimidine-7-carboxamide] was tested, and the IC50 was 9 nM. With `O=C(Nc1cccnn1)C1CCc2c(sc3ncnc(Nc4ccc5[nH]ncc5c4)c23)C1` (racemic) [Example 149, (RS)-4-(1H-indazol-5-ylamino)-N-(pyridazin-3-yl)-5,6,7,8-tetrahydro[1]benzothieno[2,3-d]pyrimidine-7-carboxamide] the IC50 was 27.4 nM. `COc1cc2[nH]ncc2cc1Nc1ncnc2sc3c(c12)CCC(C(=O)N(CCO)CCO)C3` (racemic) [Example 234, (RS)—N, N-Bis(2-hydroxyethyl)-4-[(6-methoxy-1H-indazol-5-yl)amino]-5,6,7,8-tetrahydro[1]benzothieno[2,3-d]pyrimidine-7-carboxamide] gave an IC50 of 0.4 nM. Compound `N#Cc1cccc(NC(=O)C2CCc3c(sc4ncnc(Nc5ccc6[nH]ncc6c5)c34)C2)c1` (racemic) [Example 79, (RS)—N-(3-Cyanophenyl)-4-(1H-indazol-5-ylamino)-5,6,7,8-tetrahydro[1]benzothieno[2,3-d]pyrimidine-7-carboxamide] has an IC50 of 10.5 nM. `CCCN(C)C(=O)C1CCc2c(sc3ncnc(Nc4cc5cn[nH]c5cc4OCC)c23)C1` (racemic) [Example 253, (RS)-4-[(6-Ethoxy-1H-indazol-5-yl)amino]-N-methyl-N-propyl-5,6,7,8-tetrahydro[1]benzothieno[2,3-d]pyrimidine-7-carboxamide] was tested, and the IC50 was 1.2 nM. In the case of `CN(Cc1ccccc1)C(=O)C1CCc2c(sc3ncnc(Nc4ccc5[nH]ncc5c4)c23)C1` (racemic) [Example 101, (RS)-N-benzyl-4-(1H-indazol-5-ylamino)-N-methyl-5,6,7,8-tetrahydro[1]benzothieno[2,3-d]pyrimidine-7-carboxamide], the IC50 is reported as 4.7 nM. With `CCOc1cc2[nH]ncc2cc1Nc1ncnc2sc3c(c12)CCC(C(=O)N1CC=CC1)C3` (racemic) [Example 255, (RS)-2,5-Dihydro-1H-pyrrol-1-yl{4-[(6-ethoxy-1H-indazol-5-yl)amino]-5,6,7,8-tetrahydro[1]benzothieno[2,3-d]pyrimidin-7-yl}methanone] the IC50 was 0.3 nM. `CC(C)Oc1cc2[nH]ncc2cc1Nc1ncnc2sc3c(c12)CCC(C(=O)O)C3` (racemic) [Example 69, (RS)-4-{[6-(Propan-2-yloxy)-1H-indazol-5-yl]amino}-5,6,7,8-tetrahydro[1]benzothieno[2,3-d]pyrimidine-7-carboxylic acid] showed an IC50 of 3.9 nM. Work on `O=C(NCc1ccc2c(c1)OCO2)C1CCc2c(sc3ncnc(Nc4ccc5[nH]ncc5c4)c23)C1` (stereo not shown) [Example 23, N-(1,3-Benzodioxol-5-ylmethyl)-4-(1H-indazol-5-ylamino)-5,6,7,8-tetrahydro[1] benzothieno [2,3-d]pyrimidine-7-carboxamide] yielded an IC50 of 3 nM. `O=C(NC1CC1)C1CCc2c(sc3ncnc(Nc4ccc5[nH]ncc5c4)c23)C1` (stereo not shown) [Example 44, N-Cyclopropyl-4-(1H-indazol-5-ylamino)-5,6,7,8-tetrahydro[1] benzothieno [2,3-d]pyrimidine-7-carboxamide] showed an IC50 of 9 nM. Work on `CCOc1cc2[nH]ncc2cc1Nc1ncnc2sc3c(c12)CCC(C(=O)N(C)C(C)(C)C)C3` (racemic) [Example 238, (RS)—N-tert-Butyl-4-[(6-ethoxy-1H-indazol-5-yl)amino]-N-methyl-5,6,7,8-tetrahydro[1]benzothieno[2,3-d]pyrimidine-7-carboxamide] yielded an IC50 of 1.5 nM. Compound `CCN(C(=O)C1CCc2c(sc3ncnc(Nc4cc5cn[nH]c5cc4OC)c23)C1)C(C)C` (stereo not shown) [Example 67, N-Ethyl-4-[(6-Methoxy-1H-indazol-5-yl)amino]-N-(propan-2-yl)-5,6,7,8-tetrahydro[1]benzothieno[2,3-d]pyrimidine-7-carboxamide] has an IC50 of 0.7 nM. Compound `O=C(NCCOc1ccccc1)C1CCc2c(sc3ncnc(Nc4ccc5[nH]ncc5c4)c23)C1` (stereo not shown) [Example 31, 4-(1H-Indazol-5-ylamino)-N-(2-phenoxyethyl)-5,6,7,8-tetrahydro[1] benzothieno [2,3-d]pyrimidine-7-carboxamide] has an IC50 of 4 nM. For `CCOc1cc2[nH]ncc2cc1Nc1ncnc2sc3c(c12)CCC(C(=O)N(CC)CCO)C3` (racemic) [Example 231, (RS)-4-[(6-Ethoxy-1H-indazol-5-yl)amino]-N-ethyl-N-(2-hydroxyethyl)-5,6,7,8-tetrahydro[1]benzothieno[2,3-d]pyrimidine-7-carboxamide], the IC50 was 0.3 nM. For `O=C(C1CCc2c(sc3ncnc(Nc4ccc5[nH]ncc5c4)c23)C1)N1CCN(Cc2ccccc2)CC1` (racemic) [Example 86, (RS)-(4-benzylpiperazin-1-yl)[4-(1H-indazol-5-ylamino)-5,6,7,8-tetrahydro[1]benzothieno[2,3-d]pyrimidin-7-yl]methanone], the IC50 was 14.9 nM. Compound `CCOc1cc2[nH]ncc2cc1Nc1ncnc2sc3c(c12)CCC(C(=O)N(C)C(C)C)C3` (racemic) [Example 224, (RS)-4-[(6-Ethoxy-1H-indazol-5-yl)amino]-N-isopropyl-N-methyl-5,6,7,8-tetrahydro[1]benzothieno[2,3-d]pyrimidine-7-carboxamide] has an IC50 of 0.6 nM. Work on `O=C(C1CCc2c(sc3ncnc(Nc4ccc5[nH]ncc5c4)c23)C1)N1CCCC(O)C1` (racemic) [Example 108, (RS)-(3-hydroxypiperidin-1-yl)[4-(1H-indazol-5-ylamino)-5,6,7,8-tetrahydro[1]benzothieno[2,3-d]pyrimidin-7-yl]methanone] yielded an IC50 of 12 nM. In the case of `CCOc1cc2[nH]ncc2cc1Nc1ncnc2sc3c(c12)CCC(C(=O)N(CC)CCOC)C3` (racemic) [Example 273, (RS)-4-[(6-Ethoxy-1H-indazol-5-yl)amino]-N-ethyl-N-(2-methoxyethyl)-5,6,7,8-tetrahydro[1]benzothieno[2,3-d]pyrimidine-7-carboxamide], the IC50 is reported as 0.2 nM. For `C#CCN(C)C(=O)C1CCc2c(sc3ncnc(Nc4ccc5[nH]ncc5c4)c23)C1` (stereo not shown) [Example 35, 4-(1H-Indazol-5-ylamino)-N-methyl-N-(prop-2-yn-1-yl)-5,6,7,8-tetrahydro[1] benzothieno [2,3-d]pyrimidine-7-carboxamide], the IC50 was 5 nM. `CC(C)Oc1cc2[nH]ncc2cc1Nc1ncnc2sc3c(c12)CCC(C(=O)N(C)CC1CC1)C3` (racemic) [Example 220, (RS)—N-(Cyclopropylmethyl)-N-methyl-4-{[6-(propan-2-yloxy)-1H-indazol-5-yl]amino}-5,6,7,8-tetrahydro[1]benzothieno[2,3-d]pyrimidine-7-carboxamide] was tested, and the IC50 was 0.6 nM. `CN(C)CCN1CCN(C(=O)C2CCc3c(sc4ncnc(Nc5ccc6[nH]ncc6c5)c34)C2)CC1` (racemic) [Example 129, (RS)-{4-[2-(dimethylamino)ethyl]piperazin-1-yl}[4-(1H-indazol-5-ylamino)-5,6,7,8-tetrahydro[1]benzothieno[2,3-d]pyrimidin-7-yl]methanone] showed an IC50 of 7.7 nM. Compound `O=C(NCCc1ccccc1)C1CCc2c(sc3ncnc(Nc4ccc5[nH]ncc5c4)c23)C1` (stereo not shown) [Example 37, 4-(1H-Indazol-5-ylamino)-N-(2-phenylethyl)-5,6,7,8-tetrahydro[1] benzothieno [2,3-d]pyrimidine-7-carboxamide] has an IC50 of 6 nM. `CC(=O)N(C)C1CCN(C(=O)C2CCc3c(sc4ncnc(Nc5ccc6[nH]ncc6c5)c34)C2)C1` (racemic) [Example 198, (RS)-N-(1-{[4-(1H-indazol-5-ylamino)-5,6,7,8-tetrahydro[1]benzothieno[2,3-d]pyrimidin-7-yl]carbonyl}pyrrolidin-3-yl)-N-methylacetamide] gave an IC50 of 10 nM.
